The nature of data set [1]: physchem. The class given is physicochemical. An excerpt: Table 1 Summarized DMPK and Antiviral Data for Thiazolides and Derived Peptides | column: log P
Data set [2] is described as follows: clearance in rat hepatocytes (RH). The format is in vitro ADME. From the text: Table 1 Summarized DMPK and Antiviral Data for Thiazolides and Derived Peptides | column: clearance RH μL/min/10^6 cells
A further data set can be described thus: in vitro. The class given is in vitro ADME. The conditions noted are these: human, microsomes. An excerpt: Table 1 Summarized DMPK and Antiviral Data for Thiazolides and Derived Peptides | column: clearance HLM μL/min/mg
The subject of data set [3] is influenza A virus (IAV) strain A/PuertoRico/8/1934(H1N1) (PR8). Briefly: microbe, parasite or virus in culture. The class given is cell-based.
Data set [4] is described as follows: cell viability by MTT assay in mock-infected cells. The class given is cell-based, canine. The conditions noted are these: dog; mock-infected MDCK cells, MTT, 24 h; read-out: CC50 (50% cytotoxic concentration). The procedure: (§1) Madin–Darby canine kidney (MDCK) cells (American Type Culture Collection, ATCC) were grown at 37 °C in a 5% CO2 atmosphere in an RPMI-1640 medium (LONZA-CAMBREX, Basel, Switzerland), supplemented with 10% fetal calf serum (FCS), 2 mM glutamine, and antibiotics. Tizoxanide (Romark Laboratories, L.C.) and derived peptides, dissolved in a dimethyl sulfoxide (DMSO) stock solution, were diluted in culture medium, added to infected cells after a one-hour virus adsorption period, and maintained in the medium for the duration of the experiment.
(§2) Cell viability was determined by the 3-(4,5-dimethylthiazol-2-yl)-2,5-diphenyltetrazolium bromide (MTT) to MTT formazan conversion assay (Sigma-Aldrich), as described.[28],[29] The 50% cytotoxic dose (CC50) was calculated using Prism 5.0 software (Graph-Pad Software Inc.).[28]
(§3) Confluent cell monolayers were mock-infected or infected with PR8 virus for 1 h at 37 °C at a multiplicity of infection (MOI) of 5 HAU (hemagglutinating units)/10^5 cells, as described.[30],[31] After the adsorption period, the viral inoculum was removed and cells were treated with different concentrations (0.1, 1, 5, 10, and 50 μg/mL) of each compound or vehicle and maintained at 37 °C in an RPMI-1640 medium containing 2% FCS for 24 h; in parallel, cell viability was determined in mock-infected cells by the MTT assay, as described above. Virus yield was determined 24 h post infection (p.i.) by HA titration, as described.[31] Compounds’ IC50 (50% inhibitory concentration) and IC90 (90% inhibitory concentration) were calculated using Prism 5.0 software.
On the technique in general: Formazan colour is commonly taken as a measure of viable cells.

Data set [5] in a line: physchem. Conditions: pH 7.4.
Data set [6] is classed as physicochemical. Conditions: for stability of solutions: pH 5. An excerpt: We studied the aqueous stability further by NMR, Figures 1 and 2. […] In the case of valacyclovir, which we originally used as a model for 5a and 6, it was known that some hydrolysis occurred in vivo.[17] Clearly, at the 18 day time point [Figure 2g], the rearrangement and hydrolysis products accounted for ∼50% of the total analyte. In Figure 3, the aryl region is integrated and compared with the spectra of 5a, 3, and 8 (see below).
Figure 2 Time-course ^1H NMR spectra of the aromatic region of 5a in d6-DMSO + 10%D2O. Evolution with time over an 18 day period at 298–313 K. The sample was held in an isothermal bath at a specified temperature between measurements. Spectra were recorded at the temperature stated in each case. (a) t = zero, 298 K; (b) t = 1 week, 308 K; (c) t = 8 days, 308 K; (d) t = 9 days, 308 K; (e) t = 11 days, 313 K; (f) t = 14 days, 313 K; (g) t = 18 days, 313 K.
Figure 3 Assignment and integration of the final time-point spectrum.

For data set [7] the following is noted: rat, in vivo, po; cited from earlier work.
Data set [8] relates to Madin–Darby canine kidney (MDCK) cells. Briefly: cell viability by MTT assay in mock-infected cells. The format is cell-based. Conditions: antiviral assay conditions, MDCK cells. The protocol:
as §1, §2, §3

The mark [9] stands for this setting: CC50 (MDCK) / IC50 (influenza A).
The mark [10] stands for this setting: Influenza A virus, MDCK, 24 h; read-out: IC50 (50% inhibitory concentration).
Where [11] appears, read: Influenza A virus, MDCK, 24 h; read-out: IC90 (90% inhibitory concentration).

SMILES strings stand for the structures. Converted amounts (≈) assume the structure as drawn. “Also recorded” adds a separate entry of the source. Where two headings read alike, the source gives them in different places.

In general, logP refers to the decadic logarithm of the partition coefficient of the neutral form, usually between octanol and water. A word on the hepatocyte CLint: it is a measure of how fast metabolising enzymes remove a compound, apart from limits set by blood flow. A lower hepatocyte CLint goes with slow turnover. In general, microsomal CLint refers to the rate of metabolic loss divided by the concentration. Read a low microsomal CLint as slow turnover. The solubility is the dissolved amount per volume that the medium holds. The low end stands for little dissolved substance, the high end for much dissolved substance.

As for `CC(C)[C@H](NC(=O)c1ccccc1O)C(=O)Nc1ncc([N+](=O)[O-])s1` [compound 21, (S)-2-Hydroxy-N-(3-methyl-1-((5-nitrothiazol-2-yl)amino)-1-oxobutan-2-yl)benzamide], the logP in “physchem [1]” amounted to 2.9. Also, the intrinsic clearance (hepatocyte CLint) in data set [2] is 67.7 µL/min/1e6 cells. Further, the microsomal CLint in the data set “in vitro” was 55.9 µL/min/mg. For the same molecule, the “SI, selectivity index, CC50/IC50” value in [3] (setting [9]) was above 10. For the same molecule, the IC50 in [3] (setting [10]) is 13.7 µM. Moreover, the IC90 in data set [3] (setting [11]) was above 137 µM. For the same molecule, the “antiviral activity in words” value in data set [3] (influenza A virus assay) is given as “considerably less active”. In data set [4], the CC50 at 24 h is above 137 µM. This molecule came in with a solubility in “physchem [5]” above 1000 µM.
`CC(C)(C)[C@H](N)C(=O)Oc1ccccc1C(=O)Nc1ncc(Cl)s1` [compound 6]: the stability on storage entry in data set [6] is “stable for months”. Also, the absolute bioavailability in data set [7] is recorded as 20–25%.
Turning to `O=C(Nc1ncc([N+](=O)[O-])s1)c1ccccc1O` [compound 3, Tizoxanide, reference compound], the logP in “physchem [1]” worked out at 1.8. Besides, in data set [2], the hepatocyte CLint stood at 244 µL/min/1e6 cells. The same molecule showed a microsomal CLint in the data set “in vitro” of 50.2 µL/min/mg. Moreover, in data set [3] (setting [9]), the “SI, selectivity index, CC50/IC50” value is given as above 82. Further, in data set [3] (setting [10]), the IC50 was found to be 2.3 µM. For the same molecule, the IC90 in data set [3] (setting [11]) came out at 26.4 µM. In data set [4], the CC50 at 24 h is above 189 µM. For the same molecule, the solubility in “physchem [5]” was found to be 33 µM (≈ 8.75 µg/mL).
In the case of `O=C(Nc1ncc(Cl)s1)c1ccccc1O` [compound 4, reference compound], the logP in the data set “physchem [1]” was 2.9. Also, in data set [2], the hepatocyte CLint was above 300 µL/min/1e6 cells. In addition, the microsomal CLint in “in vitro” was 37.5 µL/min/mg. In addition, in data set [3], the “SI, selectivity index, CC50/IC50” value is on record as above 50. In addition, the IC50 in data set [3] (Influenza A virus, MDCK, 24 h, read-out: IC50 (50% inhibitory concentration)) is 3.9 µM. Further, the IC90 in data set [3] (Influenza A virus, MDCK, 24 h, read-out: IC90 (90% inhibitory concentration)) was determined as 19.6 µM. Also, the CC50 at 24 h in data set [4] was above 196 µM. This molecule came in with a solubility in “physchem [5]” of 48 µM (≈ 12.2 µg/mL).
Take `CC(C)(C)[C@H](NC(=O)c1ccccc1O)C(=O)Nc1ncc([N+](=O)[O-])s1` [compound 8, (S)-N-(3,3-Dimethyl-1-((5-nitrothiazol-2-yl)amino)-1-oxobutan-2-yl)-2-hydroxybenzamide]: the logP in “physchem [1]” stood at 3.3. Besides, the hepatocyte CLint in [2] came to 31.5 µL/min/1e6 cells. Further, the microsomal CLint in “in vitro” was found to be 36.5 µL/min/mg. For the same molecule, in [3] (setting [9]), the “SI, selectivity index, CC50/IC50” value is recorded as above 83. Further, in data set [3] (setting [10]), the IC50 worked out at 1.6 µM. Moreover, the IC90 in data set [3] (setting [11]) worked out at 79 µM. Also, the “antiviral activity in words” value in data set [3] (influenza A virus assay) is listed as “retains good activity”. In addition, in data set [4], the CC50 at 24 h is above 132 µM. In the data set “physchem [5]”, this molecule showed a solubility of 18 µM (≈ 6.81 µg/mL).
Turning to `CC(C)(C)[C@H](N)C(=O)Oc1ccccc1C(=O)Nc1ncc([N+](=O)[O-])s1` [5a], in [3] (influenza A virus assay), the “antiviral activity in words” value is reported as “activity is equivalent to 3”. In addition, the stability on storage result in [6] is recorded as “stable for months”. In addition, the “rearrangement and hydrolysis products as share of total analyte / loss of 5a” value in data set [6] (d6-DMSO + 10% D2O, 298–313 K, 18 day time point, 1H NMR integration) was around 50%. Further, the absolute bioavailability in data set [7] is 20–25%.
The molecule `CC(C)[C@H](NC(=O)c1ccccc1O)C(=O)Nc1ncc(Cl)s1` [compound 22, (S)-2-Hydroxy-N-(3-methyl-1-((5-chlorothiazol-2-yl)amino)-1-oxobutan-2-yl)benzamide] returned a hepatocyte CLint in data set [2] of 234 µL/min/1e6 cells. The molecule further showed a microsomal CLint in the data set “in vitro” of 42.7 µL/min/mg. Moreover, the IC50 in [3] (setting [10]) was above 42.4 µM. Moreover, the IC90 in data set [3] (setting [11]) is above 42.4 µM. Moreover, the “antiviral activity in words” value in data set [3] (influenza A virus assay) was “essentially inactive; also recorded: virtually inactive”. The CC50 at 24 h in data set [4] was determined as 42.4 µM. In data set [8], the “toxicity under the assay conditions in words” value is on record as “appeared toxic”. The molecule also registered a solubility in the data set “physchem [5]” of 82 µM (≈ 29 µg/mL).
With `CC(C)(C)[C@H](NC(=O)c1ccccc1O)C(=O)Nc1ncc(Cl)s1` [compound 20, (S)-N-(3,3-Dimethyl-1-((5-chlorothiazol-2-yl)amino)-1-oxobutan-2-yl)-2-hydroxybenzamide], in the data set “physchem [1]”, the logP was above 3.5. Moreover, the hepatocyte CLint in [2] turned out to be 75.4 µL/min/1e6 cells. In “in vitro”, this molecule returned a microsomal CLint of 42.4 µL/min/mg. For the same molecule, the IC50 in [3] (setting [10]) is above 40.8 µM. In data set [3] (setting [11]), the IC90 was above 40.8 µM. Also, the “antiviral activity in words” value in data set [3] (influenza A virus assay) is “essentially inactive; also recorded: virtually inactive”. Moreover, the CC50 at 24 h in data set [4] is 40.8 µM. Besides, in data set [8], the “toxicity under the assay conditions in words” value is given as “appeared toxic”. Besides, the concentration in solution in “physchem [5]” (solubility) was 388 µM (≈ 143 µg/mL).
In the case of `CC(C)(C)[C@H](N)C(=O)Oc1ccccc1C(=O)Nc1ncc([N+](=O)[O-])s1.CS(=O)(=O)O` [5c, (S)-3,3-Dimethyl-1-(2-((5-nitrothiazol-2-yl)carbamoyl)phenoxy)-1-oxobutan-2-aminium Methanesulfonate], the stability of solutions result in [6] is “unstable”.
With `CC(C)(C)[C@H](N)C(=O)Oc1ccccc1C(=O)Nc1ncc([N+](=O)[O-])s1.Cc1ccc(S(=O)(=O)O)cc1` [5b, (S)-3,3-Dimethyl-1-(2-((5-nitrothiazol-2-yl)carbamoyl)phenoxy)-1-oxobutan-2-aminium 4-methylbenzenesulfonate], the stability of solutions entry in [6] is reported as “unstable”.

These data come from paper PMC10436260, “Thiazolide Prodrug Esters and Derived Peptides: Synthesis and Activity” (ACS Bio & Med Chem Au, 2023).
